This note sets out measurements from patent EP0503537B1, “6,9 Bis(substituted-amino)benzo-[g]isoquinoline-5,10-diones” (THE UNIVERSITY OF VERMONT, priority 1991, dated 1992).

The test system of experiment [1] is human colon adenocarcinoma cell line (Lovo). The experiment is described as follows: MTT cytotoxicity assay on human colon adenocarcinoma Lovo cells. The experiment is classed as cell-based. Particulars: MTT assay, 144 hrs drug exposure, read-out: IC50 µg/ml±S.D. LoVo. Here is the method: (§1) The evaluation of the "in vitro" cytotoxic activity of the compounds of the invention was performed using a human colon adenocarcinoma cell line (Lovo) isolated from a metastatic nodule and a subline with aquired resistance to a number of antitumor agents, among which doxorubicin, VP-16 and vincristine. […] The compounds were tested according to the MTT assay (Mosman, T., "Rapid Colorimetric assay for cellular growth and survival: application to proliferation and cytotoxicity assay", J. Immunol. Methods, (1983), 65, 55-63; Green, L.M., "Rapid colorimetric assay for cell viability; application to the quantitation of cytotoxic and growth inhibitory lymphokines", J. Immunol. Methods, (1984), 70, 257-268) in comparison with mitoxantrone, ametantrone and doxorubicin.
(§2) In vitro biological evaluation: MTT assay on human colon adenocarcinoma Lovo cells.
(§3) The MTT assay was performed according to Mosmann, T., J. Immunol. Methods, (1983), 65, 55-63 and Green, L. M., J. Immunol. Methods, (1984), 70, 257-268.
(§4) Immediately before use, compounds and reference standards are dissolved in proper solvent and subsequently further diluted in complete culture medium. Human colon adenocarcinoma cells Lovo and the subline resistant to doxorubicin (Lovo/DX) (2.5. 10^4 cells/ml) are plated in 96-well plates and preincubated for 24 hours in culture medium. After this time, the cells are exposed to drugs for 144 hours, then the thiazolyl blue tetrazolium bromide solution (MTT solution) is added and the cells are reincubated for 4 hours. The supernatant is removed and 150 µl of dimethylsulfoxide are added to solubilize formazan crystals. The plate is read at 570 nm with microplate reader and the inhibiting concentration of 50% cellular growth (IC50; µg/ml) is calculated.
(In general: Formazan colour is commonly taken as a measure of viable cells.)

The next experiment deals with Lovo/DX. In words: MTT cytotoxicity assay on doxorubicin-resistant subline Lovo/DX. Particulars: for IC50: Homo sapiens, LoVo/DX, MTT assay, 144 hrs drug exposure, read-out: IC50 µg/ml±S.D. LoVo/Dx; for R.I.: R.I. = (IC50 LoVo/Dx)/(IC50 LoVo); for cross resistance with mitoxantrone and ametantrone: resistant subline Lovo/DX. The experiment is classed as cell-based, human. On the procedure: as §1, §2, §3, §4

Values after ≈ are worked out from the molar mass of the structure shown.

Consider `O=C1c2ccccc2C(=O)c2c(NCCNCCO)ccc(NCCNCCO)c21` [Ametantrone, 1,4-bis{[2-(2-hydroxyethylamino)ethyl]amino}anthracene-9,10-dione, reference compound], for which the IC50 in experiment [1] came out at 0.33 ± 0.1 µg/mL (≈ 0.8 µM); in the experiment with Lovo/DX it was 33.4 ± 13.9 µg/mL (≈ 81 µM). The compound also returned a R.I. with Lovo/DX of 101.2.
With `CCN(CC)CCNc1ccc(NCCN(CC)CC)c2c1C(=O)c1ccncc1C2=O` [Compound 10b, 6,9-Bis{[2-(diethylamino)ethyl]amino}benzo[g]isoquinoline-5,10-dione], in experiment [1], the IC50 was 0.29 ± 0.05 µg/mL (≈ 0.663 µM). Further, in the experiment with Lovo/DX, the IC50 is 0.69 ± 0.1 µg/mL (≈ 1.58 µM); the R.I. is given as 2.4; the “cross resistance with mitoxantrone and ametantrone” value (“cross resistance” for short) was “no cross resistance”.
The like results for `O=C1c2ccncc2C(=O)c2c(NCCN3CCCC3)ccc(NCCN3CCCC3)c21` [Compound 10d, 6,9-Bis{[2-(1'-pyrrolidino)ethyl]amino}benzo[g]isoquinoline-5,10-dione] were, in that order, 0.2 ± 0.03 µg/mL (≈ 0.461 µM), 0.52 ± 0.15 µg/mL (≈ 1.2 µM), 2.6 and “no cross resistance”.
With `O=C1c2ccncc2C(=O)c2c(NCCN3CCOCC3)ccc(NCCN3CCOCC3)c21` [Compound 10e, 6,9-Bis{[2-(4'-morpholino)ethyl]amino}benzo[g]isoquinoline-5,10-dione], the IC50 in experiment [1] worked out at 5.32 ± 1.55 µg/mL (≈ 11.4 µM). Besides, in the experiment with Lovo/DX, the IC50 was 2.29 ± 0.67 µg/mL (≈ 4.92 µM); the R.I. is 0.4; the “cross resistance” value is “no cross resistance”.
Consider `NCCCNc1ccc(NCCCN)c2c1C(=O)c1ccncc1C2=O` [Compound 12a, 6,9-Bis{[3-(amino)propyl]amino}benzo[g]isoquinoline-5,10-dione], for which the IC50 in experiment [1] is 1.64 ± 0.02 µg/mL (≈ 4.64 µM); with Lovo/DX, 20.9 ± 0.72 µg/mL (≈ 59.1 µM). In the experiment with Lovo/DX, this compound gave a R.I. of 12.7.
`CN(C)CCCNc1ccc(NCCCN(C)C)c2c1C(=O)c1ccncc1C2=O` [Compound 12c, 6,9-Bis{[3-(dimethylamino)propyl]amino}benzo[g]isoquinoline-5,10-dione]: the IC50 in experiment [1] worked out at 0.15 ± 0.07 µg/mL (≈ 0.366 µM). Besides, in the experiment on Lovo/DX, the IC50 amounted to 0.36 ± 0.04 µg/mL (≈ 0.879 µM); the R.I. came to 2.4; the “cross resistance” value is reported as “no cross resistance”.
As for `COc1cccc2c1C(=O)c1c(O)c3c(c(O)c1C2=O)C[C@@](O)(C(=O)CO)C[C@@H]3O[C@H]1C[C@H](N)[C@H](O)[C@H](C)O1` [Doxorubicin, reference compound], the IC50 in experiment [1] amounted to 0.03 ± 0.009 µg/mL (≈ 0.0552 µM). Besides, in the experiment with Lovo/DX, the IC50 is 4.28 ± 1.8 µg/mL (≈ 7.87 µM) and the R.I. was determined as 142.7.
